Measurements reported in patent US20250313528A1, “NOVEL COMPOUND AND PHARMACEUTICAL COMPOSITION FOR PREVENTING OR TREATING PULMONARY FIBROSIS COMPRISING SAME AS ACTIVE INGREDIENT” (GIL MEDICAL CENTER, priority 2022, published 2025).

How the values were obtained:
Assay type in all cases: cell-based, human
[1] = system: DHLF-IPF cells; experiment: Microscopic examination of cell morphology and proliferation, TGF-β1-induced DHLF-IPF; conditions: microscope, FIG. 4a
Description: The effects of the two candidate compounds of sulforaphane prodrugs on cytotoxicity and morphological changes in normal lung fibroblast MRC-5 cells and diseased lung fibroblast DHLF-IPF cells were examined. The diseased lung fibroblast DHLF-IPF cell line was purchased from Lonza and cultured in FGM™-2 Fibroblast Growth Medium-2 BulletKit™ at 37° C. in a 5% CO2 incubator.
Additionally, the changes in cell morphology of two lung fibroblasts induced by TGF-β1 according to the treatments with Compound 1 and Compound 2 were examined with the naked eye through a microscope.

[2] = system: FN, COL1A1, and α-SMA; experiment: qRT-PCR of fibrosis-related genes in TGF-β1-induced MRC-5 cells; conditions: MRC-5, 10 μM pretreatment 1 hour, TGF-β1 1 ng/ml 48 hours, FIG. 4c/4d
Description: MRC-5 and DHLF-IPF cells were each cultured in growth medium, and the medium was removed. […] The medium was then removed, and the cells were washed once with PBS. Intracellular total RNA was extracted from the cultured cells using TRIzol reagent (TaKaRa Bio Inc., Japan) for gene expression analysis. 1 mL of TRIzol reagent was added to lyse the cells and denature the tissue. The lysate was transferred to each 1.5 mL tube, and 200 μL of chloroform was added thereto, followed by vortexing for 20 seconds to ensure complete mixing. After incubating at room temperature for 15 minutes, the mixture was centrifuged at 14,000 rpm for 20 minutes to obtain the supernatant. After adding an equal volume of isopropyl alcohol, the tubes were inverted and incubated at room temperature for 10 minutes. The sample was centrifuged at 14,000 rpm for 15 minutes to obtain an RNA pellet, which was washed by centrifugation with 70% ethanol for use on RNA at 14,000 rpm for 5 minutes, and dried for 5 minutes. The dried RNA sample was added with 20 μL of distilled water treated with 0.1% diethyl pyrocarbonate (DEPC) to dissolve the pallet and the resultant was used as a sample for cDNA synthesis. 1 μL of the same was used to measure the RNA concentration and purity at O.D. 260/280 nm using a Nanodrop.
Single-stranded cDNA synthesis was performed by mixing 1 μg of the extracted total RNA with 1 μL of oligo-d(T) primer ([…]) and 10 mM dNTP (TaKaRa Bio Inc., Japan), reacting at 65° C. for 5 minutes, followed by rapid cooling. To this template, 4 μL of 5×RT buffer, 0.5 μL of RNA inhibitor, and 100 units of RTase (TaKaRa Bio Inc., Japan) were added, and the total volume was adjusted to 20 μL using DEPC-treated distilled water. […]
Each gene expression level was measured using real-time PCR. […] The specificity of the amplified product was confirmed through melting curve analysis, and the target genes were quantified and compared using GAPDH as a control gene.

[3] = system: TGF-β1 signaling pathway; experiment: Western blotting of proteins related to TGF-β1 signaling pathway in DHLF-IPF; conditions: for expression level of Rock protein / expression levels of MRT/SRF in the cytoplasm and nucleus: increased by TGF-β1 treatment
Description: Specifically, to extract fibronectin and α-SMA proteins, the cells were washed once with cold PBS and then RIPA buffer (150 mM NaCl, 0.5% Triton X-100, 50 mM Tris-HCl, pH 7.4, 25 mM NaF, 20 mM EGTA), which was added with a protease inhibitor cocktail, was added thereto to lyse the cells. Then, the proteins were quantified using a BCA protein assay kit. All protein samples were subjected to electrophoresis at 10 μg on 8% to 10% PAGE gels and then transferred to 0.2 μm PVDF membranes (EMD Millipore, MA, USA). The membranes to which the protein was transferred were blocked with 5% BSA or 5% skim milk for 1 hour, and then primary antibodies were added thereto and incubated overnight at 4° C. The following day, the membranes were washed three times with PBST, and then HRP-conjugated secondary antibodies were added and reacted at room temperature for 1 hour. The PVDF membranes prepared through such procedures were smeared with ECL (Luminata™ Crescendo, EMD Millipore) and exposed to a fluorescence reader to confirm the level of protein expression.
The TGF-β1 signaling pathway can be activated through both Smad-dependent and Smad-independent pathways. The TGF-β/Smad signaling, which is a Smad-dependent pathway, is a crucial pathway that regulates the synthesis of extracellular matrix components. The Smad-independent (TGF-β/non-Smad) pathway is influenced by PI3K/AKT/mTOR and MAPK (JNK, ERK, p38), which are known to be involved in cell proliferation and growth. Based on this mechanism, the protein expression related to the TGF-β1 signaling pathway was comparatively analyzed using the same Western blotting method conducted in Example 2.

[4] = system: MRC-5 cells; experiment: Wound healing assay, MRC-5; conditions: MRC-5, TGF-β1 treatment, 24 hours, FIG. 6
Description: The effects of Compound 1 and Compound 2, selected in Example 3, on cell migration (wound healing) in MRC-5 and DHLF-IPF cells were examined.
Specifically, cells (1×10^5 cells/well) were seeded in a 60 mm dish to achieve approximately 90% confluency and cultured for 24 hours. Subsequently, a straight line was scratched on the bottom with a 200 μL pipette tip, and the detached cells were removed by washing once with Dulbecco's Phosphate-Buffered Saline (DPBS). The wound was photographed under a microscope, and treatments with TGF-β1 alone, TGF-β1+SFN, TGF-β1+GSF-016, and TGF-1+GSF-018 were applied and cultured for approximately 24 hours, after which the wound was re-photographed. The images taken at 24 hours of culture were analyzed using the Image J (Fiji package) software to measure the distance between cells, and the relative migration was expressed as a percentage (%) compared to the control group.

Row | SMILES | cell morphology [1] | inhibition of cell proliferation compared to sulforaphane-treated group [1] | gene expression levels of FN, COL1A1, and α-SMA [2] | activity of p-AKT ([3]; TGF-β1) | activity of p-ERK ([3]; TGF-β1) | activity of p-JNK ([3]; TGF-β1) | activity of p-p38 ([3]; TGF-β1) | phosphorylation of Smad-2 ([3]; TGF-β1) | phosphorylation of Smad-3 ([3]; TGF-β1) | phosphorylation of Smad-7 ([3]; TGF-β1) | expression level of Rock protein [3] | expression levels of MRT/SRF in the cytoplasm and nucleus [3] | cell migration (wound healing) [4]
1 | C=CCOC(=O)C(CSC(=S)NCCCC[S+](C)[O-])NC(C)=O (centres unmarked) [Compound 2] | thin and elongated shape, which is similar to that of the control group | inhibition of cell proliferation was more significant | significantly reducing the expression levels compared to sulforaphane | significantly reduced the activity | reducing the activity | reducing the activity | reducing the activity | inhibited | inhibited | increased | significantly reduced | significantly reduced | significantly inhibited in a dose-dependent manner
2 | CCOC(=O)C(CSC(=S)NCCCC[S+](C)[O-])NC(C)=O (centres unmarked) [Compound 1] | thin and elongated shape, which is similar to that of the control group | inhibition of cell proliferation was more significant | significantly reducing the expression levels compared to sulforaphane | significantly reducing the activity |  |  | significantly reducing the activity | inhibited |  | increased | significantly reduced | significantly reduced | significantly inhibited in a dose-dependent manner
